One test has as its system LPS challenged mice. Briefly: LPS-induced acute lung inflammation in mice: BAL fluid cell counts, MPO, serum albumin. Format: in vivo. The note with it: 10 mg/kg i.p. immediately after LPS challenge; 3 h.
A further test has as its system human neutrophils. In words: Human neutrophil chemotaxis (ChemoTX) towards recombinant human chemokines. The note with it: 50 ng/ml; 45 min; 5×10^4 neutrophils per well. The class given is cell-based. The method, then: FIG. 17. Healthy human volunteers were challenged with nebulized 0.9% saline […] (final LPS dose was 50 μg) and BAL fluid collected 6 hours later. CCL7 protein levels in BAL fluid from saline-treated or LPS-challenged human volunteers were measured by ELISA (a). Human neutrophil chemotaxis was measured across 5 μm membranes (ChemoTX, NeuroProbe) in response to recombinant human (rh) CXCL8 or rhCCL7 (b). Neutrophil chemotaxis towards LPS-treated human BAL fluid was measured in the presence of neutralizing anti-CXCL8 or anti-CCL7 antibodies (c). BAL fluid was collected from patients suffering with ALI on intensive care units. CCL7 protein (d) and CCL2 protein (f) in ALI BAL fluid was measured by ELISA. Neutrophil chemotaxis towards BAL fluid obtained from patients with ALI was measured in the presence of neutralizing anti-CXCL8 and ant-CCL7 antibodies (e). […]
Although it is widely accepted that CXCL8 (IL-8) is an important chemokine in human neutrophilic lung disease (Miller, E. J. et al Am. Rev. Respir. Dis. 146, 427-432 (1992)), it is far from clear whether other chemokines are associated with disease pathogenesis. […] For these studies, CCL7 was measured by ELISA in BAL fluid from healthy volunteers challenged with LPS (50 μg) at 6 hours as previously described (Shyamsundar, M. et al Am. J. Respir. Crit Care Med. 179, 1107-1114 (2009)). […]

Another test has as its system naïve mice. Briefly: Intranasal administration of recombinant CCL2 or CCL7 to naïve mice, BAL fluid cell counts. Format: in vivo. The note with it: 500 ng/mouse i.n., 3 h; for total cell number recovered from BAL fluid: compared to saline treated controls. The method, then:
FIG. 15. Naïve mice were administered with either rCCL2 or rCCL7 (500 ng/mouse, i.n.) and 3 h later BAL fluid was recovered. BAL fluid total cell counts (A) and total neutrophils (B) were calculated from differential cell counts performed on cytospin preparations. The percentage of neutrophils in BAL fluid was also calculated (C). Differential cell counts were performed on cytospin preparations following saline (D), rCCL2 (E) or rCCL7 (F) administration. Data were analysed by one way ANOVA with Newman-Keuls post hoc test: *p<0.05, **p<0.01,*** p<0.001. Arrows indicate: N, neutrophil; M, monocyte/macrophage.
In order to determine the whether CCL2 and CCL7 are able to directly recruit leukocytes into the lung, recombinant CCL2 or CCL7 was administered into the lungs of naïve mice and sampled the BAL fluid after 3 h. […] Differential cell counts were performed on cytospin preparations following saline (FIG. 15D), rCCL2 (FIG. 15E) or rCCL7 (FIG. 15F) administration.

Entries after “also recorded” stand apart in the source; their conditions may differ.

For `CCOC(=O)N[C@@H]1CC[C@@H]2[C@@H](C1)C[C@H]1C(=O)O[C@H](C)[C@H]1[C@H]2/C=C/c1ccc(-c2cccc(F)c2)cn1` [SCH530348], in the test with LPS challenged mice, the “neutrophil numbers in the airspaces (BAL fluid)” value is recorded as “significantly decreased” and the “total cell numbers in the airspaces (BAL fluid)” value is “significantly decreased”.
Consider “CCL7: Recombinant human CCL7 (Peprotech)”, for which, in the test with human neutrophils, the “migration of neutrophils compared to media alone” value was “did not influence”.
In the case of “CXCL8: Recombinant human CXCL8 (IL-8) (Peprotech)”, the “migration of neutrophils compared to media alone” value in the test on human neutrophils is “increased”.
In the case of rCCL2: recombinant CCL2, in the test on naïve mice, the “recruitment of neutrophils into lung airspaces” value is reported as “resulted in the recruitment of a neutrophils” and the “total cell number recovered from BAL fluid” value is listed as “increased; also recorded: greater number of leukocytes compared to rCCL7”.
On to rCCL7: recombinant CCL7, for which, in the test on naïve mice, the “neutrophils as a percentage of total cells recovered from BAL fluid” value is “preferential accumulation of neutrophils compared to rCCL2”, the “recruitment of neutrophils into lung airspaces” value was “resulted in the recruitment of a neutrophils” and the “total cell number recovered from BAL fluid” value is “increased”.

For the origin of these results see patent US20150079105A1, “TREATMENT OF ACUTE INFLAMMATION IN THE RESPIRATORY TRACT” (UCL Business PLC, priority 2012, published 2015).
